Assay results: the NIST ThermoML archive (doi:10.1021/acs.jced.6b00688)
Numbers after ± are expanded uncertainties.

Settings: for viscosity / mass density: 101.33 kPa, Liquid; for viscosity: Falling or rolling sphere viscometry; for mass density: Vibrating tube method; for Normal melting temperature: Crystal, DTA

Row | viscosity (293.15 K) [mPa·s] | mass density (293.15 K) [kg/m3] | viscosity (298.15 K) [mPa·s] | mass density (298.15 K) [kg/m3] | viscosity (303.15 K) [mPa·s] | mass density (303.15 K) [kg/m3] | viscosity (308.15 K) [mPa·s] | mass density (308.15 K) [kg/m3] | viscosity (313.15 K) [mPa·s] | mass density (313.15 K) [kg/m3] | viscosity (318.15 K) [mPa·s] | mass density (318.15 K) [kg/m3] | viscosity (323.15 K) [mPa·s] | mass density (323.15 K) [kg/m3] | viscosity (328.15 K) [mPa·s] | mass density (328.15 K) [kg/m3] | viscosity (333.15 K) [mPa·s] | mass density (333.15 K) [kg/m3] | Normal melting temperature [°C] | SMILES
1 | 36.96 ± 0.79 | 929.96 ± 1.9 | 28.35 ± 0.61 | 926.43 ± 1.9 | 22.04 ± 0.47 | 922.87 ± 1.9 | 17.32 ± 0.37 | 919.28 ± 1.8 | 13.83 ± 0.3 | 915.66 ± 1.8 | 11.14 ± 0.24 | 912 ± 1.8 | 9.099 ± 0.2 | 908.31 ± 1.8 | 7.521 ± 0.16 | 904.57 ± 1.8 | 6.283 ± 0.14 | 900.78 ± 1.8 |  | OCC1CCCCC1 [cyclohexylmethanol]
2 | 1.485 ± 0.032 | 748.82 ± 1.5 | 1.359 ± 0.029 | 745.2 ± 1.5 | 1.25 ± 0.027 | 741.57 ± 1.5 | 1.155 ± 0.025 | 737.94 ± 1.5 | 1.073 ± 0.023 | 734.3 ± 1.5 | 0.998 ± 0.022 | 730.64 ± 1.5 | 0.932 ± 0.02 | 726.98 ± 1.5 | 0.873 ± 0.019 | 723.31 ± 1.5 | 0.819 ± 0.018 | 719.64 ± 1.4 | -8.20 ± 6 | CCCCCCCCCCCC [dodecane]
3 | 6.89 ± 0.15 | 822.24 ± 1.6 | 5.805 ± 0.12 | 818.74 ± 1.6 | 4.941 ± 0.11 | 815.22 ± 1.6 | 4.233 ± 0.09 | 811.68 ± 1.6 | 3.648 ± 0.077 | 808.11 ± 1.6 | 3.165 ± 0.067 | 804.52 ± 1.6 | 2.762 ± 0.059 | 800.88 ± 1.6 | 2.423 ± 0.051 | 797.2 ± 1.6 | 2.137 ± 0.045 | 793.49 ± 1.6 | -34.10 ± 6 | CCCCCCCO [heptan-1-ol]
4 | 0.727 ± 0.016 | 769.33 ± 1.5 | 0.681 ± 0.015 | 765 ± 1.5 | 0.64 ± 0.014 | 760.67 ± 1.5 | 0.604 ± 0.013 | 756.32 ± 1.5 | 0.571 ± 0.012 | 751.95 ± 1.5 | 0.542 ± 0.012 | 747.56 ± 1.5 | 0.515 ± 0.011 | 743.15 ± 1.5 | 0.491 ± 0.011 | 738.73 ± 1.5 | 0.469 ± 0.01 | 734.28 ± 1.5 | -125.30 ± 6 | CC1CCCCC1 [methylcyclohexane]
